Assays:
Format in all cases: binding
D2 = D2 (Homo sapiens, UniProt P14416); test: pKi of test compounds, D2 receptor; conditions: read-out: pKi D2 (converted)
5-HT2A receptor = 5-HT2A receptor (Homo sapiens, UniProt P28223); test: pKi of test compounds, 5-HT2A receptor
Alpha2A = biological target: T1, Alpha2A (Homo sapiens, UniProt P08913); test: pKi of test compounds, adrenergic receptor Alpha2A
T1 sequence (P08913 1-465): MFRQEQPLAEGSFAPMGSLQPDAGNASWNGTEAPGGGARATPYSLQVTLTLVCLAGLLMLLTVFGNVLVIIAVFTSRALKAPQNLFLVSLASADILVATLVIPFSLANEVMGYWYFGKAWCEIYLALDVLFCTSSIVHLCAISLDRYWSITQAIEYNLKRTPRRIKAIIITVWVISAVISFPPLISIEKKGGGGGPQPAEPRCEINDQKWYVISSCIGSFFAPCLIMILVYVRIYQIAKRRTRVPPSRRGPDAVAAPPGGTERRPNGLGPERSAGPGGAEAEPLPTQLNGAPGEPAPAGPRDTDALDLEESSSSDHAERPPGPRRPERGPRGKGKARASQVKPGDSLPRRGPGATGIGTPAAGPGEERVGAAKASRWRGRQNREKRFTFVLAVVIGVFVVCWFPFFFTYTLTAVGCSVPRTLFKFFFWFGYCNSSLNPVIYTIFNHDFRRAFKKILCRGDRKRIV

5HT2C = biological target: T2, 5HT2C (Homo sapiens, UniProt P28335); test: pKi of test compounds, 5HT2C receptor
T2 sequence (P28335 33-458): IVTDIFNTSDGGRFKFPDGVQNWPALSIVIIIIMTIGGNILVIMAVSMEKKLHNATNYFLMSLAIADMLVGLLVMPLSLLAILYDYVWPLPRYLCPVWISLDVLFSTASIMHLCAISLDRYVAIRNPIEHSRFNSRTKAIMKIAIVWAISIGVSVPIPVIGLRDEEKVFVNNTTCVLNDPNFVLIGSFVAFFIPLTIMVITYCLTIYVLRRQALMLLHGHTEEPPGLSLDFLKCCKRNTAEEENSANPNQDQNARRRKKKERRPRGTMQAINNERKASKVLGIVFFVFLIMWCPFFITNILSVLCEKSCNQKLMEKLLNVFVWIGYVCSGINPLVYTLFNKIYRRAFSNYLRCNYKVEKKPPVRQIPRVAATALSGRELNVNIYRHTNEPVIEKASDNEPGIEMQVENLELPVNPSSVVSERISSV

5HT1A = biological target: T3, 5HT1A (Homo sapiens, UniProt P08908); test: pKi of test compounds, 5HT1A receptor
T3 sequence (P08908 1-422): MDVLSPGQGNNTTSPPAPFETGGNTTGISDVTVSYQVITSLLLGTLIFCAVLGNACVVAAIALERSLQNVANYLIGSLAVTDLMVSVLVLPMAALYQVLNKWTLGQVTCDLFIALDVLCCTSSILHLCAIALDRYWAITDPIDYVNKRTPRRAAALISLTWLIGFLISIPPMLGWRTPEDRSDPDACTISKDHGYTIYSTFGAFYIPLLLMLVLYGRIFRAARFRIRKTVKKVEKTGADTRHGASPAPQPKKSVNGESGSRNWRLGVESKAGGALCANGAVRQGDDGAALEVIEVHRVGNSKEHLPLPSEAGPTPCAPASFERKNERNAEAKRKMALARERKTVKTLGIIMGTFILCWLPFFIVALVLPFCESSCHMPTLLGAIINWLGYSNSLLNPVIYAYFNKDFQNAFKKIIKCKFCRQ

D3 = D3 (Homo sapiens, UniProt P35462); test: pKi of test compounds, D3 receptor; conditions: for Ki: read-out: pKi D3 (converted)
D3, sequence (P35462 whole entry): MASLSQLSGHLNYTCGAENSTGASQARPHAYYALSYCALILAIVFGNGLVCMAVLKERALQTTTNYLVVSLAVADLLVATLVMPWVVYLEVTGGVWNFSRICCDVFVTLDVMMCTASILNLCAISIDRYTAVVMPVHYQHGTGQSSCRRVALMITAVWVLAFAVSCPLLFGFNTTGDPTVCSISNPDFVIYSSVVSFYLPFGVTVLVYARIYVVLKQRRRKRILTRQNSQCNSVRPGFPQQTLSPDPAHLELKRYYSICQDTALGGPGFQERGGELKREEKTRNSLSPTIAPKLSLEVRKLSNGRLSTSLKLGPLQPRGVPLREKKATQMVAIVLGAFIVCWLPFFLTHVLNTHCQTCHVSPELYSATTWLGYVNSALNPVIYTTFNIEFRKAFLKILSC

Alpha1A = biological target: T4, Alpha1A (Homo sapiens, UniProt P35348); test: pKi of test compounds, adrenergic receptor Alpha1A
T4 sequence (P35348 1-466): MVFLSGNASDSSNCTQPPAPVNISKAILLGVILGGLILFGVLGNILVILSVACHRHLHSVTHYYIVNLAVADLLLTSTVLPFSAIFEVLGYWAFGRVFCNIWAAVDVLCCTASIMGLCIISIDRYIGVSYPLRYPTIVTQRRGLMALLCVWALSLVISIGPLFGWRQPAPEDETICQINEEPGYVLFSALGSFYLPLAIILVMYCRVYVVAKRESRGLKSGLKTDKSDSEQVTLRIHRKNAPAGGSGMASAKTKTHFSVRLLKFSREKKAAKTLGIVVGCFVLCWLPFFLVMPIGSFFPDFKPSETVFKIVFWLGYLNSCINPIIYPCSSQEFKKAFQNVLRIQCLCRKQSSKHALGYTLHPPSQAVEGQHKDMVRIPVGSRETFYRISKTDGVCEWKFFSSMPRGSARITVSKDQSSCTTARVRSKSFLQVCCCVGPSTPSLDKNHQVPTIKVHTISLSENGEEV

D1 = D1 (Homo sapiens, UniProt P21728); test: pKi of test compounds, D1 receptor
D1, sequence (P21728 whole entry): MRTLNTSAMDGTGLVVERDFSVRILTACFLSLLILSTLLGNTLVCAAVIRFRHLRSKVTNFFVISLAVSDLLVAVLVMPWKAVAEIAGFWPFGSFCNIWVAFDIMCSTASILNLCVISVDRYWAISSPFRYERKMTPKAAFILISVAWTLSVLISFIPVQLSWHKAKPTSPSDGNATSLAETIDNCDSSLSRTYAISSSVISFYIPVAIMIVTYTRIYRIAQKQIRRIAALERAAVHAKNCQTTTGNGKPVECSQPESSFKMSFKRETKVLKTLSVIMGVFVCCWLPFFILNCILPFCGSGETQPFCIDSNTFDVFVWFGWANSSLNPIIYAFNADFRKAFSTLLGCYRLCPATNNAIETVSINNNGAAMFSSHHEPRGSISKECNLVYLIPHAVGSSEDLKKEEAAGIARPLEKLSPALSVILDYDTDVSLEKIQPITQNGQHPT

5HT1F = 5HT1F (Homo sapiens, UniProt P30939); test: pKi of test compounds, 5HT1F receptor
5HT1F, sequence (P30939 whole entry, species assumed): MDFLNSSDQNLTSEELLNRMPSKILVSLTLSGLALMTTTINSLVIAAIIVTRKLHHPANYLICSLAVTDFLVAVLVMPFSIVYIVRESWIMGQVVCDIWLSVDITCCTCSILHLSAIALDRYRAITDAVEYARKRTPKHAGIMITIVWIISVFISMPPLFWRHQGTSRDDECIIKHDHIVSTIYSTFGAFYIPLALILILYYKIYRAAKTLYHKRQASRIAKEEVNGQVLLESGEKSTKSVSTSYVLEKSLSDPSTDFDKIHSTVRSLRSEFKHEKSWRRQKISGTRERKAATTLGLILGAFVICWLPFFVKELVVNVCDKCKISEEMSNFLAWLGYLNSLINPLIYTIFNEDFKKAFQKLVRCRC

Alpha2C = biological target: T5, Alpha2C (Homo sapiens, UniProt P18825); test: pKi of test compounds, adrenergic receptor Alpha2C
T5 sequence (P18825 1-462): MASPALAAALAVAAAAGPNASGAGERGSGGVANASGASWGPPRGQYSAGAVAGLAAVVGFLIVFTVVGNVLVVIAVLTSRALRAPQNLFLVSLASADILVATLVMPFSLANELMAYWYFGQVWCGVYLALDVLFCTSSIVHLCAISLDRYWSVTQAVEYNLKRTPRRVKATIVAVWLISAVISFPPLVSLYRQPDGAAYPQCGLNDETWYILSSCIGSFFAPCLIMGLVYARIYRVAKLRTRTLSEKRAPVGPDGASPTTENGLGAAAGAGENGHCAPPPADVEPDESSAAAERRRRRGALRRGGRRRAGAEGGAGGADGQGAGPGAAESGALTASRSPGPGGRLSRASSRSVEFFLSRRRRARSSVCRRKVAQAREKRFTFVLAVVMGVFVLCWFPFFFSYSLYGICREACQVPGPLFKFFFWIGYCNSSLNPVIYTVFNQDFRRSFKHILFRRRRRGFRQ

Alpha2B = Alpha2B (Homo sapiens, UniProt P18089); test: pKi of test compounds, adrenergic receptor Alpha2B
5HT1B = 5HT1B (Homo sapiens, UniProt P28222); test: pKi of test compounds, 5HT1B receptor
5HT1B, sequence (P28222 whole entry, species assumed): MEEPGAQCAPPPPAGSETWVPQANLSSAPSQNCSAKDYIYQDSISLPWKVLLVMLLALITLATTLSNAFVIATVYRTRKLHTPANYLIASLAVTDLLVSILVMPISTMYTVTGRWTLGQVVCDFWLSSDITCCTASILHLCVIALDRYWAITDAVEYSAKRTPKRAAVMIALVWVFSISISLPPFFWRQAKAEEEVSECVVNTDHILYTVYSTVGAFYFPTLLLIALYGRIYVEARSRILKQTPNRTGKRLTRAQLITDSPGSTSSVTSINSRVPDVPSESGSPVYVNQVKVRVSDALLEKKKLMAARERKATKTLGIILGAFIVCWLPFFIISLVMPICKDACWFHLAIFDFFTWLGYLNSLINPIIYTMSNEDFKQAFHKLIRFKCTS

5HT1E = 5HT1E (Homo sapiens, UniProt P28566); test: pKi of test compounds, 5HT1E receptor
5HT1E, sequence (P28566 whole entry, species assumed): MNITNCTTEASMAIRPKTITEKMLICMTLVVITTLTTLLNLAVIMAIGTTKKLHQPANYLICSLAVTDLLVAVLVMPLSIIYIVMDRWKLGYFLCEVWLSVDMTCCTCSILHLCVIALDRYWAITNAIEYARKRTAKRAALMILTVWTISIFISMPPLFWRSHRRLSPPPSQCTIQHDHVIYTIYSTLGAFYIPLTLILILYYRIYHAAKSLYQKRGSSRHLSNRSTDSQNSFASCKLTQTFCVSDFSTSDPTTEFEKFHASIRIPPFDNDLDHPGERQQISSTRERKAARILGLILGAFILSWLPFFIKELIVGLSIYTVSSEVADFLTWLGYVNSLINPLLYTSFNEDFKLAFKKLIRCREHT

5HT1D = 5HT1D (Homo sapiens, UniProt P28221); test: pKi of test compounds, 5HT1D receptor; conditions: for Ki: read-out: pKi 5HT1D (converted)
5HT1D, sequence (P28221 whole entry, species assumed): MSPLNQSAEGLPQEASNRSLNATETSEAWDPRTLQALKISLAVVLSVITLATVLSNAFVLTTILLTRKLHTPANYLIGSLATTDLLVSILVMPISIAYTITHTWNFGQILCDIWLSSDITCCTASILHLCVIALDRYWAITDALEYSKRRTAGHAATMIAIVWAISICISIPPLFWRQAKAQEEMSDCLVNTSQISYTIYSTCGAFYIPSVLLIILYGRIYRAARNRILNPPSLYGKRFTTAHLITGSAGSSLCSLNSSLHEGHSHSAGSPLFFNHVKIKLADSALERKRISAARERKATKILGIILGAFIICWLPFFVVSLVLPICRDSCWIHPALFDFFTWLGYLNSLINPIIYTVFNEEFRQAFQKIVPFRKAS

D4 receptor = biological target: T6, D4 receptor (Homo sapiens, UniProt P21917); test: pKi of test compounds, D4 receptor; conditions: D4; read-out: pKi D4 (converted)
T6 sequence (P21917 1-419): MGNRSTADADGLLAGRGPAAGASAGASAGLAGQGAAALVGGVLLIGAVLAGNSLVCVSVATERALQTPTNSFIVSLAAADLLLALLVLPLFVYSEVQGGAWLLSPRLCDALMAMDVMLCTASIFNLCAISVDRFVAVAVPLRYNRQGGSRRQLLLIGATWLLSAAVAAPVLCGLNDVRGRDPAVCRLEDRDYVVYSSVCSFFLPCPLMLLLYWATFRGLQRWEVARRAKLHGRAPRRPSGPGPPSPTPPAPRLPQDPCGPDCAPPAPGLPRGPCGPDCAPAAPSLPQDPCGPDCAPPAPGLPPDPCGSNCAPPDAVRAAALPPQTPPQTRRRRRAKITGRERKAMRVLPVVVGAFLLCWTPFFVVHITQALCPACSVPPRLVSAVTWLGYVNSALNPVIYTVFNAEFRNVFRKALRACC

5HT2B = 5HT2B (Homo sapiens, UniProt P41595); test: pKi of test compounds, 5HT2B receptor
5HT6rat = 5HT6rat (Rattus norvegicus, UniProt P31388); test: pKi of test compounds, 5HT6 receptor; conditions: rat; read-out: pKi 5HT6rat (converted)
5HT6rat, sequence (P31388 whole entry): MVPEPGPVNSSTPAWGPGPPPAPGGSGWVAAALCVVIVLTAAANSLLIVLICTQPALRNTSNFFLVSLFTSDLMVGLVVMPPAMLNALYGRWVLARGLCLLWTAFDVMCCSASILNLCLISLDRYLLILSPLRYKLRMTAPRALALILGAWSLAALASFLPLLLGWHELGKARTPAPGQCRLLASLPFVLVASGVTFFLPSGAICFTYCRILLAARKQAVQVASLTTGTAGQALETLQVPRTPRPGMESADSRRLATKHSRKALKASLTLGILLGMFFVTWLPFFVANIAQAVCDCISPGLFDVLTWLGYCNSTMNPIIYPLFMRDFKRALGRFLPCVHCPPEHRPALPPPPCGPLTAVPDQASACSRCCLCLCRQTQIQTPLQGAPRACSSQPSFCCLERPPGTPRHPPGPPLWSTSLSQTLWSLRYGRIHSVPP

Beta2 = Beta2 (Homo sapiens, UniProt P07550); test: pKi of test compounds, adrenergic receptor Beta2
Beta2, sequence (P07550 whole entry): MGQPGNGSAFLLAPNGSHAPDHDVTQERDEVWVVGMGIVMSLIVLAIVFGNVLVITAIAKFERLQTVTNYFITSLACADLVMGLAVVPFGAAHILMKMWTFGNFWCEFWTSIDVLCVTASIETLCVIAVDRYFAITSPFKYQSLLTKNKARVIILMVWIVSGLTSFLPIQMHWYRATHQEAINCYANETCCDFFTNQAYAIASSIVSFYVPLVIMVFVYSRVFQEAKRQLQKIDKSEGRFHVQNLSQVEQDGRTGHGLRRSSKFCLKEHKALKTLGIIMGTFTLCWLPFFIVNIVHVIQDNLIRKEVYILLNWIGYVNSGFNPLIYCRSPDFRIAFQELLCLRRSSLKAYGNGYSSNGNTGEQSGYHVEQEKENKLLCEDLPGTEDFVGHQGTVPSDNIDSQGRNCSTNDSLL

Beta1 = Beta1 (Homo sapiens, UniProt P08588); test: pKi of test compounds, adrenergic receptor Beta1
Beta1, sequence (P08588 whole entry): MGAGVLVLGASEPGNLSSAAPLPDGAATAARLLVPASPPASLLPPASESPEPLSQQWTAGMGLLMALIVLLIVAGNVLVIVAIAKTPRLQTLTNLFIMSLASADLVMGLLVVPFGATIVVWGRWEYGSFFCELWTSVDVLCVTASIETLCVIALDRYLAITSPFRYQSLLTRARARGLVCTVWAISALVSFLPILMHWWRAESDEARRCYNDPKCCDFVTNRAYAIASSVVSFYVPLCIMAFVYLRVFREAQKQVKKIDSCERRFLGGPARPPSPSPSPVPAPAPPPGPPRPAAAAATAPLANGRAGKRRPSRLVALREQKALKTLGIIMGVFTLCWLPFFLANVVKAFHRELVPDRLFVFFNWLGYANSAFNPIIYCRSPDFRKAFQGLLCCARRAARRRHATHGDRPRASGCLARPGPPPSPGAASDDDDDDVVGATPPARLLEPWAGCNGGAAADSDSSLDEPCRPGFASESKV

5HT7rat = 5HT7rat (Rattus norvegicus, UniProt P32305); test: pKi of test compounds, 5HT7 receptor

5-HT2A receptor, sequence (P28223 whole entry): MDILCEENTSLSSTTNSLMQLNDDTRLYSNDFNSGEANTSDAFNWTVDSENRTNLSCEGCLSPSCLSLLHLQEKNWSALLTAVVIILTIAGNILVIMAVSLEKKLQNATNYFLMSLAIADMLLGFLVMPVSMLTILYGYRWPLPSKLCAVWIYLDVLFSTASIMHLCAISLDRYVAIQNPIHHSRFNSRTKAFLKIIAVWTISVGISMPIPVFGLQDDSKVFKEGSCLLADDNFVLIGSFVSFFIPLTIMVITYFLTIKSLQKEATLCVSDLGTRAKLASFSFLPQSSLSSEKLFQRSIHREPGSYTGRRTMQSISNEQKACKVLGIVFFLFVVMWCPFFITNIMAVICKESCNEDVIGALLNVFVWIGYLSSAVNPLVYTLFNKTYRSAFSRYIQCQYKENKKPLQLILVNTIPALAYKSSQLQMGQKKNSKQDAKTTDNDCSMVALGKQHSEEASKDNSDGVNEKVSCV
D2, sequence (P14416 whole entry): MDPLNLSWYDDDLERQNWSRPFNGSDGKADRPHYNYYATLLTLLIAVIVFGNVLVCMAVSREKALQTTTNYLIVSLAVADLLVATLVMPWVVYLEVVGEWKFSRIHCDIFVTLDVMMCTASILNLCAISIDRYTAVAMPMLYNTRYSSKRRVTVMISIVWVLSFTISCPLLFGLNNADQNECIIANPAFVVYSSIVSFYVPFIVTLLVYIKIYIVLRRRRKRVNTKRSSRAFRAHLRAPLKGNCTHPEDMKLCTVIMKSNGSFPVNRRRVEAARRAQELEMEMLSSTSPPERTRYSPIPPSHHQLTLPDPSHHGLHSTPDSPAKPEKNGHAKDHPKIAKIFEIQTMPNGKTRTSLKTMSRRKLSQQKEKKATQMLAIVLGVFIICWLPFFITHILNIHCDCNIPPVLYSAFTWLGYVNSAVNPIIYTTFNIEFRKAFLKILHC

Ki (D2) [nM]	Ki (5-HT2A receptor) [nM]	Ki (Alpha2A) [nM]	Ki (5HT2C) [nM]	Ki (5HT1A) [nM]	Ki (D3) [nM]	Ki (Alpha1A) [nM]	Ki (D1) [nM]	SMILES	Ki (D4 receptor) [nM]	further results
100 to 1000	1 to 10	> 1000	> 1000	> 1000	100 to 1000	10 to 100	100 to 1000	CCNC(=O)N1CCN(CCCC(c2ccc(F)cc2)c2ccc(F)cc2)CC1 [Amperozide]		
								CN1CCN(C2=Nc3cc(Cl)ccc3Nc3ccccc32)CC1 [Clozapine]		Ki (5HT1F): 100 to 1000 nM
		1 to 10		100 to 1000		100 to 1000		Fc1cccc2c1O[C@H]1CNC[C@@H]1O2 [Fluparoxan]		Ki (Alpha2C): 1 to 10 nM; Ki (Alpha2B): 1 to 10 nM
								OC1(c2ccc(Cl)cc2)CCN(Cc2c[nH]c3ccccc23)CC1 [L741626]		pKi Alpha2A (Alpha2A): <6; pKi 5HT1B (5HT1B): <6; pKi D3 (D3): 7-8; pKi 5HT1D (5HT1D): <6; pKi 5HT2B (5HT2B): 6-7
< 1	< 1		10 to 100	10 to 100	1 to 10	< 1	10 to 100	Cc1nc2c(C)cccn2c(=O)c1CCN1CCC(c2noc3cc(F)ccc23)CC1 [Ocaperidone]	1 to 10	
		> 1000	> 1000	> 1000	1 to 10	> 1000	> 1000	CCN1CCC[C@H]1CNC(=O)c1c(O)c(Cl)cc(Cl)c1OC [Raciopride]		

SMILES	Ki (D2) [nM]	Ki (5-HT2A receptor) [nM]	Ki (Alpha2A) [nM]	Ki (5HT2C) [nM]	Ki (5HT1A) [nM]	Ki (D3) [nM]	Ki (Alpha1A) [nM]	Ki (D1) [nM]	Ki (D4 receptor) [nM]	further results
O=C1NCN(c2ccccc2)C12CCN(CCCC(c1ccc(F)cc1)c1ccc(F)cc1)CC2 [Fluspirilene]	< 1								1 to 10	Ki (5HT1B): > 1000 nM; Ki (5HT1E): > 1000 nM; Ki (5HT1D): > 1000 nM
CN1CC2c3ccccc3Oc3ccc(Cl)cc3C2C1 (stereo not drawn) [ORG5222]		< 1	1 to 10	< 1	1 to 10	1 to 10	< 1	1 to 10	1 to 10	Ki (5HT1B): 1 to 10 nM; Ki (5HT1E): 10 to 100 nM; Ki (5HT6rat): < 1 nM; Ki (5HT1D): 1 to 10 nM; Ki (Alpha2C): 10 to 100 nM; Ki (Beta2): > 1000 nM; Ki (Beta1): > 1000 nM; Ki (5HT7rat): < 1 nM

Reference: US20050119253A1, “Method of treating mental disorders using of D4 and 5-HT2A antagonists, inverse agonists or partial agonists” (priority 2003, published 2005)
